Laboratory results as given in the NIST ThermoML archive (doi:10.1021/je034041x).
Numbers after ± are expanded uncertainties.

Experiments:
[1] = xn = mol fraction of the nth substance listed; details: Liquid
[2] = Liquid

**Q.** With O=C=O [carbon dioxide] + O as the compound, how does the viscosity ([1]; 273.9 K, 670 kPa, x1 = 0.00869) read?
**A.** 1.855 ± 0.12 mPa·s

**Q.** What about the viscosity ([1]; 274.2 K, 4630 kPa, x1 = 0.00295) of the same compound?
**A.** 2.827 ± 0.18 mPa·s

**Q.** What about the viscosity ([1]; 274.3 K, 670 kPa, x1 = 0.00857) of the same compound?
**A.** 1.851 ± 0.12 mPa·s

**Q.** What about the viscosity ([1]; 274.5 K, 670 kPa, x1 = 0.0085) of the same compound?
**A.** 1.839 ± 0.12 mPa·s

**Q.** What about the viscosity ([1]; 274.6 K, 4610 kPa, x1 = 0.00294) of the same compound?
**A.** 2.951 ± 0.19 mPa·s

**Q.** And the viscosity ([1]; 274.7 K, 670 kPa, x1 = 0.00844)?
**A.** 1.818 ± 0.12 mPa·s

**Q.** And the viscosity ([1]; 275 K, 670 kPa, x1 = 0.00834)?
**A.** 1.794 ± 0.12 mPa·s

**Q.** What about the viscosity ([1]; 275.1 K, 670 kPa, x1 = 0.00831) of the same compound?
**A.** 1.807 ± 0.12 mPa·s

**Q.** And the viscosity ([1]; 275.3 K, 670 kPa, x1 = 0.00824)?
**A.** 1.771 ± 0.12 mPa·s

**Q.** What about the viscosity ([1]; 275.6 K, 690 kPa, x1 = 0.00815) of the same compound?
**A.** 1.739 ± 0.11 mPa·s

**Q.** What about the viscosity ([1]; 275.9 K, 690 kPa, x1 = 0.00805) of the same compound?
**A.** 1.705 ± 0.11 mPa·s

**Q.** And the viscosity ([1]; 276 K, 690 kPa, x1 = 0.00802)?
**A.** 1.694 ± 0.11 mPa·s

**Q.** What about the viscosity ([1]; 276.1 K, 4780 kPa, x1 = 0.00291) of the same compound?
**A.** 2.225 ± 0.14 mPa·s

**Q.** What about the viscosity ([1]; 276.3 K, 4790 kPa, x1 = 0.00291) of the same compound?
**A.** 2.179 ± 0.14 mPa·s

**Q.** What about the viscosity ([1]; 276.4 K, 690 kPa, x1 = 0.00789) of the same compound?
**A.** 1.647 ± 0.11 mPa·s

**Q.** And the viscosity ([1]; 276.5 K, 4810 kPa, x1 = 0.0029)?
**A.** 2.171 ± 0.14 mPa·s

**Q.** What about the viscosity ([1]; 276.7 K, 690 kPa, x1 = 0.00779) of the same compound?
**A.** 1.605 ± 0.11 mPa·s

**Q.** And the viscosity ([1]; 277.1 K, 690 kPa, x1 = 0.00766)?
**A.** 1.604 ± 0.1 mPa·s

**Q.** What about the viscosity ([1]; 277.5 K, 690 kPa, x1 = 0.00754) of the same compound?
**A.** 1.57 ± 0.1 mPa·s

**Q.** And the viscosity ([1]; 277.7 K, 4850 kPa, x1 = 0.00287)?
**A.** 2.078 ± 0.14 mPa·s

**Q.** And the viscosity ([1]; 278.6 K, 4890 kPa, x1 = 0.00285)?
**A.** 1.948 ± 0.13 mPa·s

**Q.** What about the viscosity ([1]; 279.1 K, 710 kPa, x1 = 0.00702) of the same compound?
**A.** 1.438 ± 0.094 mPa·s

**Q.** And the viscosity ([1]; 279.3 K, 710 kPa, x1 = 0.00695)?
**A.** 1.44 ± 0.094 mPa·s

**Q.** What about the viscosity ([1]; 279.6 K, 4910 kPa, x1 = 0.00283) of the same compound?
**A.** 1.848 ± 0.12 mPa·s

**Q.** What about the viscosity ([1]; 281 K, 710 kPa, x1 = 0.00641) of the same compound?
**A.** 1.367 ± 0.089 mPa·s

**Q.** And the viscosity ([1]; 281 K, 4910 kPa, x1 = 0.0028)?
**A.** 1.728 ± 0.11 mPa·s

**Q.** What about the viscosity ([1]; 281.8 K, 769 kPa, x1 = 0.00615) of the same compound?
**A.** 1.225 ± 0.08 mPa·s

**Q.** What about the viscosity ([1]; 282.1 K, 729 kPa, x1 = 0.00605) of the same compound?
**A.** 1.267 ± 0.082 mPa·s

**Q.** What about the viscosity ([1]; 282.1 K, 4920 kPa, x1 = 0.00277) of the same compound?
**A.** 1.539 ± 0.1 mPa·s

**Q.** What about the viscosity ([1]; 282.2 K, 4870 kPa, x1 = 0.00277) of the same compound?
**A.** 1.576 ± 0.1 mPa·s

**Q.** With O [water] as the compound, how does the viscosity ([2]; 273.9 K, 670 kPa) read?
**A.** 1.833 ± 0.12 mPa·s

**Q.** And the viscosity ([2]; 274.2 K, 4630 kPa)?
**A.** 1.802 ± 0.12 mPa·s

**Q.** And the viscosity ([2]; 274.3 K, 670 kPa)?
**A.** 1.827 ± 0.12 mPa·s

**Q.** What about the viscosity ([2]; 274.5 K, 670 kPa) of the same compound?
**A.** 1.808 ± 0.12 mPa·s

**Q.** And the viscosity ([2]; 274.6 K, 4610 kPa)?
**A.** 1.804 ± 0.12 mPa·s

**Q.** And the viscosity ([2]; 274.7 K, 670 kPa)?
**A.** 1.774 ± 0.12 mPa·s

**Q.** What about the viscosity ([2]; 275 K, 670 kPa) of the same compound?
**A.** 1.737 ± 0.12 mPa·s

**Q.** And the viscosity ([2]; 275.1 K, 670 kPa)?
**A.** 1.725 ± 0.11 mPa·s

**Q.** What about the viscosity ([2]; 275.3 K, 670 kPa) of the same compound?
**A.** 1.705 ± 0.11 mPa·s

**Q.** And the viscosity ([2]; 275.6 K, 690 kPa)?
**A.** 1.683 ± 0.11 mPa·s

**Q.** And the viscosity ([2]; 275.9 K, 101.3 kPa)?
**A.** 1.64 ± 0.11 mPa·s

**Q.** What about the viscosity ([2]; 275.9 K, 690 kPa) of the same compound?
**A.** 1.66 ± 0.11 mPa·s

**Q.** What about the viscosity ([2]; 276 K, 690 kPa) of the same compound?
**A.** 1.652 ± 0.11 mPa·s

**Q.** And the viscosity ([2]; 276.1 K, 101.3 kPa)?
**A.** 1.637 ± 0.11 mPa·s

**Q.** What about the viscosity ([2]; 276.1 K, 4780 kPa) of the same compound?
**A.** 1.67 ± 0.11 mPa·s

**Q.** And the viscosity ([2]; 276.3 K, 101.3 kPa)?
**A.** 1.631 ± 0.11 mPa·s

**Q.** And the viscosity ([2]; 276.3 K, 4790 kPa)?
**A.** 1.652 ± 0.11 mPa·s

**Q.** And the viscosity ([2]; 276.4 K, 690 kPa)?
**A.** 1.622 ± 0.11 mPa·s

**Q.** What about the viscosity ([2]; 276.5 K, 4810 kPa) of the same compound?
**A.** 1.634 ± 0.11 mPa·s

**Q.** And the viscosity ([2]; 276.7 K, 101.3 kPa)?
**A.** 1.594 ± 0.11 mPa·s

**Q.** What about the viscosity ([2]; 276.7 K, 690 kPa) of the same compound?
**A.** 1.613 ± 0.11 mPa·s

**Q.** What about the viscosity ([2]; 276.9 K, 101.3 kPa) of the same compound?
**A.** 1.588 ± 0.1 mPa·s

**Q.** What about the viscosity ([2]; 277.1 K, 690 kPa) of the same compound?
**A.** 1.589 ± 0.1 mPa·s

**Q.** What about the viscosity ([2]; 277.2 K, 101.3 kPa) of the same compound?
**A.** 1.555 ± 0.1 mPa·s

**Q.** What about the viscosity ([2]; 277.5 K, 690 kPa) of the same compound?
**A.** 1.558 ± 0.1 mPa·s

**Q.** And the viscosity ([2]; 277.7 K, 4850 kPa)?
**A.** 1.459 ± 0.096 mPa·s

**Q.** What about the viscosity ([2]; 278.3 K, 101.3 kPa) of the same compound?
**A.** 1.491 ± 0.098 mPa·s

**Q.** And the viscosity ([2]; 278.6 K, 4890 kPa)?
**A.** 1.459 ± 0.095 mPa·s

**Q.** And the viscosity ([2]; 279.1 K, 710 kPa)?
**A.** 1.442 ± 0.094 mPa·s

**Q.** What about the viscosity ([2]; 279.3 K, 101.3 kPa) of the same compound?
**A.** 1.437 ± 0.094 mPa·s

**Q.** And the viscosity ([2]; 279.3 K, 710 kPa)?
**A.** 1.428 ± 0.094 mPa·s

**Q.** And the viscosity ([2]; 279.6 K, 4910 kPa)?
**A.** 1.425 ± 0.093 mPa·s

**Q.** What about the viscosity ([2]; 279.9 K, 101.3 kPa) of the same compound?
**A.** 1.405 ± 0.092 mPa·s

**Q.** And the viscosity ([2]; 281 K, 710 kPa)?
**A.** 1.357 ± 0.089 mPa·s

**Q.** And the viscosity ([2]; 281 K, 4910 kPa)?
**A.** 1.375 ± 0.09 mPa·s

**Q.** What about the viscosity ([2]; 281.8 K, 769 kPa) of the same compound?
**A.** 1.329 ± 0.087 mPa·s

**Q.** What about the viscosity ([2]; 282.1 K, 729 kPa) of the same compound?
**A.** 1.319 ± 0.086 mPa·s

**Q.** What about the viscosity ([2]; 282.1 K, 4920 kPa) of the same compound?
**A.** 1.338 ± 0.087 mPa·s

**Q.** What about the viscosity ([2]; 282.2 K, 101.3 kPa) of the same compound?
**A.** 1.286 ± 0.084 mPa·s

**Q.** What about the viscosity ([2]; 282.2 K, 4870 kPa) of the same compound?
**A.** 1.335 ± 0.087 mPa·s
